Patent US8999408B2, “Amla extract for transdermal application” (priority 2006, dated 2015)

Assays:
[1] = Transdermal diffusion of Vitamin C / reductones across guinea pig abdominal skin in a diffusion cell; type: in vitro ADME; settings: for Reductones transported across the guinea pig membrane: 3 hours, 37° C., phosphate buffer pH 7; for Fraction trans-dermal percent: 10 mg applied, after 3 hours, relative to reductone equivalent present in application
Experimental: The diffusion studies were carried out across the guinea pig abdominal skin. […] The guinea pig abdominal skin was placed between the upper and lower chambers of the diffusion cell, thereby separating the 2 chambers. The test composition was introduced into the upper chamber. Migration of the components from the upper chamber to the lower chamber (which had liquid or buffer at body pH) through the guinea pig abdominal skin allowed comparative studies for extent of migration of the components from different test compositions.
After introducing the test material in the upper chamber, the diffusion was carried out for 3 hours.
The lower chamber of the diffusion cells were filled with 15 ml of phosphate buffer, pH 7, and the prepared guinea pig skins were fixed on each diffusion cell between the upper and lower chambers of the diffusion cell. The temperature of the diffusion cell was maintained at 37° C.
The diffusion across the skin membrane of active ingredients, that is, scorbutic reductones (that is Vitamin C actives substances including ascorbic acid) and hydrogen ions was carried out for three hours.
To an aliquot (5 ml) of supernatant of the HPO3 extract 2.5 ml of acetone was added and the resulting solution was titrated with dye 2,6-dichloro indophenol until a faint pink color persisted for 15 seconds. The concentration of Vitamin C in the sample was expressed as mg ascorbic acid equivalent to 1 ml of the dye solution.

[2] = Radical scavenging by the DPPH (diphenylpicryl-hydrazyl) method; settings: 10 mg dose

Reductones transported across the guinea pig membrane ([1]; 10 mg applied on guinea pig membrane): 0.3 mg | Fraction trans-dermal percent [1]: 3.0% | Fraction trans-dermal percent ([1]; listed as Vitamin C): 3% | Reductones transported across the guinea pig membrane ([1]; 100 mg applied on guinea pig membrane): 8.4 mg
SMILES: O=C1O[C@H]([C@@H](O)CO)C(O)=C1O [ascorbic acid]
inhibition (DPPH radical scavenging) [2]: −4.66%
